Test results as given in patent publication US20250304559A1, “Ether-Linked Antiviral Compounds” (Pfizer Inc., priority 2021, published 2025).
Read-outs that look alike come from different tables or passages of the source.

How the values were obtained:
[1] = test system: SARS-CoV-2 (USA_WA1/2020); test: Antiviral Activity from SARS-CoV-2 Infection (cytopathic effect, Cell Titer-Glo); format: cell-based; settings: VeroE6 cells enriched for hACE2, MOI 0.002, 3-day incubation, tested alone or with P-gp inhibitor CP-100356 2 μM (table does not say which), read-out: Geometric Mean EC50
SARS-CoV-2 3CL protease = biological target: T1, SARS-CoV-2 3CL protease (Severe acute respiratory syndrome coronavirus 2, UniProt P0DTD1); test: SARS-CoV-2 Coronavirus 3C Protease FRET Assay; format: biochemical; settings: Examples 14-78 and 114 (second head of Table 2); Morrison equation fit, 15 nM enzyme, 25 μM peptide substrate; read-out: Geometric Mean Ki (nM) IC50
T1 construct: measures the activity of full-length SARS-CoV-2 3CL protease

[2] = Severe acute respiratory syndrome coronavirus 2, Vero C1008, 72 h

Row | Structure (SMILES) | EC50 [1, 2] | further results
1 | COCC(=O)[C@H](C[C@@H]1CCNC1=O)NC(=O)[C@@H]1CC(C(C)(C)C)CCN1C(=O)[C@@H](NS(=O)(=O)C(F)(F)F)C(C)C (single isomer, unassigned) [Example 15, (2R*,4S*)-4-tert-butyl-N-{(2S)-4-methoxy-3-oxo-1-[(3S)-2-oxopyrrolidin-3-yl]butan-2-yl}-1-[N-(trifluoromethanesulfonyl)-L-valyl]piperidine-2-carboxamide, DIAST-1] | 272 nM | 
2 | CC(C)[C@H](NS(C)(=O)=O)C(=O)N1CCC(C(F)(F)F)C[C@H]1C(=O)N[C@@H](C[C@@H]1CCNC1=O)C(=O)COc1ccc(F)cc1F (single isomer, unassigned) [Example 41, (2R*,4S*)-N-{(2S)-4-(2,4-difluorophenoxy)-3-oxo-1-[(3S)-2-oxopyrrolidin-3-yl]butan-2-yl}-1-[N-(methanesulfonyl)-L-valyl]-4-(trifluoromethyl)piperidine-2-carboxamide, DIAST-2] |  | EC50 [1]: 224 nM
3 | CC(C)[C@H](NS(C)(=O)=O)C(=O)N1CCC(C(F)(F)F)C[C@H]1C(=O)N[C@@H](C[C@@H]1CCNC1=O)C(=O)COc1ccc(F)cc1F (single isomer, unassigned) [Example 71, (2R*,4S*)-N-{(2S)-4-(2,4-difluorophenoxy)-3-oxo-1-[(3S)-2-oxopyrrolidin-3-yl]butan-2-yl}-1-[N-(methanesulfonyl)-L-valyl]-4-(trifluoromethyl)piperidine-2-carboxamide, DIAST-1] |  | EC50 [1]: 8310 nM
4 | Cc1ccc(OCC(=O)[C@H](C[C@@H]2CCNC2=O)NC(=O)[C@@H]2[C@@H]3[C@H](CN2C(=O)[C@@H](NC(=O)C(F)(F)F)C(C)C)C3(C)C)cn1 [Example 18, (1R,2S,5S)-6,6-dimethyl-N-{(2S)-4-[(6-methylpyridin-3-yl)oxy]-3-oxo-1-[(3S)-2-oxopyrrolidin-3-yl]butan-2-yl}-3-[N-(trifluoroacetyl)-L-valyl]-3-azabicyclo[3.1.0]hexane-2-carboxamide] | 114 nM | 
5 | Cc1ccc(OCC(=O)[C@H](C[C@@H]2CCNC2=O)NC(=O)[C@@H]2[C@@H]3[C@H](CN2C(=O)[C@@H](NC(=O)C(F)(F)F)C(C)(C)C)C3(C)C)cn1 [Example 19, (1R,2S,5S)-6,6-dimethyl-N-{(2S)-4-[(6-methylpyridin-3-yl)oxy]-3-oxo-1-[(3S)-2-oxopyrrolidin-3-yl]butan-2-yl}-3-[3-methyl-N-(trifluoroacetyl)-L-valyl]-3-azabicyclo[3.1.0]hexane-2-carboxamide] | 37.2 nM | 
6 | CC(C)(C)[C@H](NC(=O)C(F)(F)F)C(=O)N1C[C@H]2[C@@H]([C@H]1C(=O)N[C@@H](C[C@@H]1CCNC1=O)C(=O)COc1ccccc1)C2(C)C [Example 20, (1R,2S,5S)-6,6-dimethyl-3-[3-methyl-N-(trifluoroacetyl)-L-valyl]-N-{(2S)-3-oxo-1-[(3S)-2-oxopyrrolidin-3-yl]-4-phenoxybutan-2-yl}-3-azabicyclo[3.1.0]hexane-2-carboxamide] | 14.7 nM | 
7 | CCc1cc(OCC(=O)[C@H](C[C@@H]2CCNC2=O)NC(=O)[C@@H]2[C@@H]3[C@H](CN2C(=O)[C@@H](NC(=O)C(F)(F)F)C(C)(C)C)C3(C)C)n(C)n1 [Example 26, (1R,2S,5S)-N-{(2S)-4-[(3-ethyl-1-methyl-1H-pyrazol-5-yl)oxy]-3-oxo-1-[(3S)-2-oxopyrrolidin-3-yl]butan-2-yl}-6,6-dimethyl-3-[3-methyl-N-(trifluoroacetyl)-L-valyl]-3-azabicyclo[3.1.0]hexane-2-carboxamide] | 171 nM | 
8 | CC(C)[C@H](NC(=O)C(F)(F)F)C(=O)N1C[C@H]2[C@@H]([C@H]1C(=O)N[C@@H](C[C@@H]1CCNC1=O)C(=O)COc1ccc(F)nc1)C2(C)C [Example 31, (1R,2S,5S)-N-{(2S)-4-[(6-fluoropyridin-3-yl)oxy]-3-oxo-1-[(3S)-2-oxopyrrolidin-3-yl]butan-2-yl}-6,6-dimethyl-3-[N-(trifluoroacetyl)-L-valyl]-3-azabicyclo[3.1.0]hexane-2-carboxamide] | 167 nM | 
9 | COC(=O)N[C@H](C(=O)N1C[C@H]2[C@@H]([C@H]1C(=O)N[C@@H](C[C@@H]1CCNC1=O)C(=O)COc1cc(C(F)(F)F)nn1C)C2(C)C)C(C)C [Example 36, methyl {(2S)-1-[(1R,2S,5S)-6,6-dimethyl-2-({(2S)-4-{[1-methyl-3-(trifluoromethyl)-1H-pyrazol-5-yl]oxy}-3-oxo-1-[(3S)-2-oxopyrrolidin-3-yl]butan-2-yl}carbamoyl)-3-azabicyclo[3.1.0]hexan-3-yl]-3-methyl-1-oxobutan-2-yl}carbamate] | 256 nM | 
10 | CCc1cc(OCC(=O)[C@H](C[C@@H]2CCNC2=O)NC(=O)[C@@H]2[C@@H]3[C@H](CN2C(=O)[C@@H](NC(=O)OC)C(C)(C)C)C3(C)C)n(C)n1 [Example 37, methyl {(2S)-1-[(1R,2S,5S)-2-({(2S)-4-[(3-ethyl-1-methyl-1H-pyrazol-5-yl)oxy]-3-oxo-1-[(3S)-2-oxopyrrolidin-3-yl]butan-2-yl}carbamoyl)-6,6-dimethyl-3-azabicyclo[3.1.0]hexan-3-yl]-3,3-dimethyl-1-oxobutan-2-yl}carbamate] | 900 nM | 
11 | CCn1nc(C)cc1OCC(=O)[C@H](C[C@@H]1CCNC1=O)NC(=O)[C@@H]1[C@@H]2[C@H](CN1C(=O)[C@@H](NC(=O)C(F)(F)F)C(C)C)C2(C)C [Example 43, (1R,2S,5S)-N-{(2S)-4-[(1-ethyl-3-methyl-1H-pyrazol-5-yl)oxy]-3-oxo-1-[(3S)-2-oxopyrrolidin-3-yl]butan-2-yl}-6,6-dimethyl-3-[N-(trifluoroacetyl)-L-valyl]-3-azabicyclo[3.1.0]hexane-2-carboxamide] | 642 nM | 
12 | CCc1cc(OCC(=O)[C@H](C[C@@H]2CCNC2=O)NC(=O)[C@@H]2[C@@H]3[C@H](CN2C(=O)[C@@H](NC(=O)C(F)(F)F)C(C)C)C3(C)C)n(C)n1 [Example 45, (1R,2S,5S)-N-{(2S)-4-[(3-ethyl-1-methyl-1H-pyrazol-5-yl)oxy]-3-oxo-1-[(3S)-2-oxopyrrolidin-3-yl]butan-2-yl}-6,6-dimethyl-3-[N-(trifluoroacetyl)-L-valyl]-3-azabicyclo[3.1.0]hexane-2-carboxamide] | 384 nM | 
13 | Cc1nsnc1OCC(=O)[C@H](C[C@@H]1CCNC1=O)NC(=O)[C@@H]1[C@@H]2[C@H](CN1C(=O)[C@@H](NC(=O)C(F)(F)F)C(C)C)C2(C)C [Example 46, (1R,2S,5S)-6,6-dimethyl-N-{(2S)-4-[(4-methyl-1,2,5-thiadiazol-3-yl)oxy]-3-oxo-1-[(3S)-2-oxopyrrolidin-3-yl]butan-2-yl}-3-[N-(trifluoroacetyl)-L-valyl]-3-azabicyclo[3.1.0]hexane-2-carboxamide] |  | Ki (SARS-CoV-2 3CL protease): 8.21 nM
14 | CC(C)[C@H](NC(=O)C(F)(F)F)C(=O)N1C[C@H]2[C@@H]([C@H]1C(=O)N[C@@H](C[C@@H]1CCNC1=O)C(=O)COc1nnc(C(C)(C)C)n1C)C2(C)C [Example 78, (1R,2S,5S)-N-{(2S)-4-[(5-tert-butyl-4-methyl-4H-1,2,4-triazol-3-yl)oxy]-3-oxo-1-[(3S)-2-oxopyrrolidin-3-yl]butan-2-yl}-6,6-dimethyl-3-[N-(trifluoroacetyl)-L-valyl]-3-azabicyclo[3.1.0]hexane-2-carboxamide] | 7370 nM | 
